Experimental data taken from patent US10689339B2, “Pyrrolidine derivatives” (Hoffmann-La Roche Inc., priority 2016, dated 2020).

Biological target: human Cat S (Homo sapiens (Human), UniProt P25774)
Assay: Cathepsin enzyme inhibition assay (fluorogenic peptide substrate Z-Val-Val-Arg-AMC)
Format: biochemical
Conditions: enzyme 1 nM, substrate 20 μM, pH 6.5
Method: Cathepsin Enzyme Inhibition Assay
Enzyme activity is measured by observing the increase in fluorescence intensity caused by cleavage of a peptide substrate containing a fluorophore whose emission is quenched in the intact peptide.
Assay buffer: 100 mM potassium phosphate pH 6.5, EDTA-Na 5 mM, Triton X-100 0.001%, DTT 5 mM.
Enzymes (all at 1 nM): human and mouse Cathepsin S, Cat K, Cat B, Cat L.
Substrate (20 μM): Z-Val-Val-Arg-AMC, except for Cat K which uses Z-Leu-Arg-AMC (both from Bachem).
AMC=7-Amino-4-Methyl-Coumarin.
Excitation 360 nm, Emission 465 nm.
Enzyme is added to the substance dilutions in 96-well microtitre plates and the reaction is started with substrate. […] IC50 are calculated by standard methods.
Inhibition of human Cat S, mouse Cat S, human Cat K, human Cat B, human Cat L and mouse Cat L have been measured separately.

human Cat S, sequence (P25774 115-331): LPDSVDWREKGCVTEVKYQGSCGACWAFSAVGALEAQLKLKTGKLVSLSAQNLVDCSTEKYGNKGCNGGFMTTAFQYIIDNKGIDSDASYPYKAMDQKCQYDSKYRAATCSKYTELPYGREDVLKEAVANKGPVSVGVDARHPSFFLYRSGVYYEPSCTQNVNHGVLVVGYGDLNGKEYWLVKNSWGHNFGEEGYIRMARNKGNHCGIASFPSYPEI

Cc1nc(C)c(-c2ccc(S(=O)(=O)[C@@H]3C[C@@H](C(=O)NC4(C#N)CC4)N(C(=O)C4(C(F)(F)F)CC4)C3)cc2)s1 [Example 49, (2S,4R)—N-(1-cyanocyclopropyl)-4-(4-(2,4-dimethylthiazol-5-yl)phenylsulfonyl)-1-(1-(trifluoromethyl)cyclopropanecarbonyl)pyrrolidine-2-carboxamide]
IC50: 0.909 nM

Cc1ncc(-c2ccc(S(=O)(=O)[C@@H]3C[C@@H](C(=O)NC4(C#N)CC4)N(C(=O)C4(C(F)(F)F)CC4)C3)cc2)s1 [Example 50, (2S,4R)—N-(1-cyanocyclopropyl)-4-(4-(2-methylthiazol-5-yl)phenylsulfonyl)-1-(1-(trifluoromethyl)cyclopropanecarbonyl)pyrrolidine-2-carboxamide]
IC50: 0.728 nM

COc1ncc(-c2ccc(S(=O)(=O)[C@@H]3C[C@@H](C(=O)NC4(C#N)CC4)N(C(=O)C4(C(F)(F)F)CC4)C3)cc2)cn1 [Example 51, (2S,4R)—N-(1-cyanocyclopropyl)-4-(4-(2-methoxypyrimidin-5-yl)phenylsulfonyl)-1-(1-(trifluoromethyl)cyclopropanecarbonyl)pyrrolidine-2-carboxamide]
IC50: 0.882 nM

Cc1ncnn1-c1ccc(S(=O)(=O)[C@@H]2C[C@@H](C(=O)NC3(C#N)CC3)N(C(=O)C3(C(F)(F)F)CC3)C2)c(Cl)c1 [Example 52, (2S,4R)-4-(2-chloro-4-(5-methyl-1H-1,2,4-triazol-1-yl)phenylsulfonyl)-N-(1-cyanocyclopropyl)-1-(1-(trifluoromethyl)cyclopropanecarbonyl)pyrrolidine-2-carboxamide]
IC50: 0.486 nM

N#CC1(NC(=O)[C@@H]2C[C@@H](S(=O)(=O)c3ccc(-n4ccnn4)cc3C(F)(F)F)CN2C(=O)C2(C(F)(F)F)CC2)CC1 [Example 54, (2S,4R)-4-(4-[1,2,3]Triazol-1-yl-2-trifluoromethyl-benzenesulfonyl)-1-(1-trifluoromethyl-cyclopropanecarbonyl)-pyrrolidine-2-carboxylic acid (1-cyano-cyclopropyl)-amide]
IC50: 0.382 nM

Cc1noc(C)c1-c1ccc(S(=O)(=O)[C@@H]2C[C@@H](C(=O)NC3(C#N)CC3)N(C(=O)C3(C(F)(F)F)CC3)C2)cc1 [Example 55, (2S,4R)—N-(1-cyanocyclopropyl)-4-(4-(3,5-dimethylisoxazol-4-yl)phenylsulfonyl)-1-(1-(trifluoromethyl)cyclopropanecarbonyl)pyrrolidine-2-carboxamide]
IC50: 1.44 nM

N#CC1(NC(=O)[C@@H]2C[C@@H](S(=O)(=O)c3ccc(-c4cnn(C(F)F)c4)cc3C(F)(F)F)CN2C(=O)C2(C(F)(F)F)CC2)CC1 [Example 56, (2S,4R)-4-[4-(1-Difluoromethyl-1Hpyrazol-4-yl)-2-trifluoromethyl-benzenesulfonyl]-1-(1-trifluoromethyl-cyclopropanecarbonyl)-pyrrolidine-2-carboxylic acid (1-cyano-cyclopropyl)-amide]
IC50: 0.526 nM

Cc1nnn(-c2ccc(S(=O)(=O)[C@@H]3C[C@@H](C(=O)NC4(C#N)CC4)N(C(=O)C4(C(F)(F)F)CC4)C3)c(C(F)(F)F)c2)n1 [Example 57, (2S,4R)-4-[4-(5-Methyl-tetrazol-2-yl)-2-trifluoromethyl-benzenesulfonyl]-1-(1-trifluoromethyl-cyclopropanecarbonyl)-pyrrolidine-2-carboxylic acid (1-cyano-cyclopropyl)-amide]
IC50: 0.564 nM

N#CC1(NC(=O)[C@@H]2C[C@@H](S(=O)(=O)c3ccc(-c4c[nH]nc4C(F)(F)F)cc3C(F)(F)F)CN2C(=O)C2(C(F)(F)F)CC2)CC1 [Example 58, (2S,4R)-1-(1-Trifluoromethyl-cyclopropanecarbonyl)-4-[2-trifluoromethyl-4-(3-trifluoromethyl-1Hpyrazol-4-yl)-benzenesulfonyl]-pyrrolidine-2-carboxylic acid (1-cyano-cyclopropyl)-amide]
IC50: 2.42 nM

Cc1cc(-c2ccccc2CO)ccc1S(=O)(=O)[C@@H]1C[C@@H](C(=O)NC2(C#N)CC2)N(C(=O)C2(C(F)(F)F)CC2)C1 [Example 59, (2S,4R)—N-(1-cyanocyclopropyl)-4-(2′-(hydroxymethyl)-3-methylbiphenyl-4-ylsulfonyl)-1-(1-(trifluoromethyl)cyclopropanecarbonyl)pyrrolidine-2-carboxamide]
IC50: 0.943 nM

Cc1nc(C)c(-c2ccc(S(=O)(=O)[C@@H]3C[C@@H](C(=O)NC4(C#N)CC4)N(C(=O)C4(C(F)(F)F)CC4)C3)c(C)c2)s1 [Example 60, (2S,4R)—N-(1-cyanocyclopropyl)-4-(4-(2,4-dimethylthiazol-5-yl)-2-methylphenylsulfonyl)-1-(1-(trifluoromethyl)cyclopropanecarbonyl)pyrrolidine-2-carboxamide]
IC50: 0.614 nM

Cc1ncc(-c2ccc(S(=O)(=O)[C@@H]3C[C@@H](C(=O)NC4(C#N)CC4)N(C(=O)C4(C(F)(F)F)CC4)C3)c(C)c2)s1 [Example 61, (2S,4R)—N-(1-cyanocyclopropyl)-4-(2-methyl-4-(2-methylthiazol-5-yl)phenylsulfonyl)-1-(1-(trifluoromethyl)cyclopropanecarbonyl)pyrrolidine-2-carboxamide]
IC50: 0.613 nM

COc1ncc(-c2ccc(S(=O)(=O)[C@@H]3C[C@@H](C(=O)NC4(C#N)CC4)N(C(=O)C4(C(F)(F)F)CC4)C3)c(C)c2)cn1 [Example 62, (2S,4R)—N-(1-cyanocyclopropyl)-4-(4-(2-methoxypyrimidin-5-yl)-2-methylphenylsulfonyl)-1-(1-(trifluoromethyl)cyclopropanecarbonyl)pyrrolidine-2-carboxamide]
IC50: 0.592 nM

Cc1ncc(-c2ccc(S(=O)(=O)[C@@H]3C[C@@H](C(=O)NC4(C#N)CC4)N(C(=O)C4(C(F)(F)F)CC4)C3)c(C(F)(F)F)c2)s1 [Example 63, (2S,4R)-4-[4-(2-Methyl-thiazol-5-yl)-2-trifluoromethyl-benzenesulfonyl]-1-(1-trifluoromethyl-cyclopropanecarbonyl)-pyrrolidine-2-carboxylic acid (1-cyano-cyclopropyl)-amide]
IC50: 0.585 nM

Cc1cc(-c2c(C)noc2C)ccc1S(=O)(=O)[C@@H]1C[C@@H](C(=O)NC2(C#N)CC2)N(C(=O)C2(C(F)(F)F)CC2)C1 [Example 64, (2S,4R)—N-(1-cyanocyclopropyl)-4-(4-(3,5-dimethylisoxazol-4-yl)-2-methylphenylsulfonyl)-1-(1-(trifluoromethyl)cyclopropanecarbonyl)pyrrolidine-2-carboxamide]
IC50: 0.65 nM

Cc1cc(-n2cnc(Cl)n2)ccc1S(=O)(=O)[C@@H]1C[C@@H](C(=O)NC2(C#N)CC2)N(C(=O)C2(C(F)(F)F)CC2)C1 [Example 66, (2S,4R)-4-(4-(3-chloro-1H-1,2,4-triazol-1-yl)-2-methylphenylsulfonyl)-N-(1-cyanocyclopropyl)-1-(1-(trifluoromethyl)cyclopropanecarbonyl)pyrrolidine-2-carboxamide]
IC50: 223 nM

Cc1cc(-n2cnc(Cl)n2)ccc1S(=O)(=O)[C@@H]1C[C@H](C(=O)NC2(C#N)CC2)N(C(=O)C2(C(F)(F)F)CC2)C1 [Example 67, (2R,4R)-4-(4-(3-chloro-1H-1,2,4-triazol-1-yl)-2-methylphenylsulfonyl)-N-(1-cyanocyclopropyl)-1-(1-(trifluoromethyl)cyclopropanecarbonyl)pyrrolidine-2-carboxamide]
IC50: 542 nM

Cn1cc(-c2ccc(S(=O)(=O)[C@@H]3C[C@@H](C(=O)NC4(C#N)CC4)N(C(=O)C4(C(F)(F)F)CC4)C3)c(C(F)(F)F)c2)c(C(F)(F)F)n1 [Example 68, (2S,4R)-4-[4-(1-Methyl-3-trifluoromethyl-1Hpyrazol-4-yl)-2-trifluoromethyl-benzenesulfonyl]-1-(1-trifluoromethyl-cyclopropanecarbonyl)-pyrrolidine-2-carboxylic acid (1-cyano-cyclopropyl)-amide]
IC50: 0.829 nM

N#CC1(NC(=O)[C@@H]2C[C@@H](S(=O)(=O)c3ccc(-n4cnc(Cl)n4)cc3)CN2C(=O)C2(C(F)(F)F)CC2)CC1 [Example 69, (2S,4R)-4-(4-(3-chloro-1H-1,2,4-triazol-1-yl)phenylsulfonyl)-N-(1-cyanocyclopropyl)-1-(1-(trifluoromethyl)cyclopropanecarbonyl)pyrrolidine-2-carboxamide]
IC50: 497 nM
